Values of other authors as cited in patent US11938224B1, “Benzonatate modified release solid tablets and capsules” (Tris Pharma, Inc., priority 2016, dated 2024).

Conditions: room temperature, oily liquid

solubility in water: water soluble
SMILES: CCCCNc1ccc(C(=O)OCCOCCOCCOCCOCCOCCOCCOCCOCCOC)cc1 [Benzonatate, 2-[2-[2-[2-[2-[2-[2-[2-(2-methoxyethoxy)ethoxy]ethoxy]ethoxy]ethoxy]ethoxy]ethoxy]ethoxy] ethyl-4-butylaminobenzoate]
